Laboratory results as given in ChEMBL document CHEMBL1201862, “PubChem BioAssay data set” (2004).
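Following 48 hours of exposure in 96-well plates, responses at five concentrations were used to interpolate endpoints linearly. GI50 = concentration required for 50% inhibition of growth.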 Active and inactive are the calls of the source. Cut-off read from the data, not from the text of the source: active = GI50 up to about 1.1 µM and inactive = higher.

Key:
Assay in all cases: growth of human tumour cells (NCI), 48 h
NCI-H23 = system: NCI-H23
OVCAR-5 = system: OVCAR-5
K562 = system: K562
SK-MEL-2 = system: SK-MEL-2
HCT-116 = system: HCT-116
HL-60 = system: HL-60
SK-OV-3 = system: SK-OV-3
SF-268 = system: SF-268
SF-295 = system: SF-295
SNB-19 = system: SNB-19
SW-620 = system: SW-620
OVCAR-8 = system: OVCAR-8
RXF 393 = system: RXF 393
NCI/ADR-RES = system: NCI/ADR-RES
COLO 205 = system: COLO 205
SK-MEL-28 = system: SK-MEL-28
OVCAR-4 = system: OVCAR-4
HCC 2998 = system: HCC 2998
MDA-N = system: MDA-N

SMILES	GI50 (NCI-H23)	GI50 (OVCAR-5)	GI50 (K562)	GI50 (SK-MEL-2)	GI50 (HCT-116)	GI50 (HL-60)	GI50 (SK-OV-3)	GI50 (SF-268)	GI50 (SF-295)	GI50 (SNB-19)	GI50 (SW-620)	GI50 (OVCAR-8)	GI50 (RXF 393)	GI50 (NCI/ADR-RES)	GI50 (COLO 205)	GI50 (SK-MEL-28)	GI50 (OVCAR-4)	GI50 (HCC 2998)	GI50 (MDA-N)
CC(=O)Nc1ccc(/C=C/c2ccc(NC(=O)Nc3ccc(/C=C/c4ccc(NC(C)=O)cc4S(=O)(=O)O)c(S(=O)(=O)O)c3)cc2S(=O)(=O)O)c(S(=O)(=O)O)c1	> 100 µM (inactive)	> 100 µM (inactive)	> 100 µM (inactive)	> 100 µM (inactive)	> 100 µM (inactive)	60.1 µM (inactive)	> 100 µM (inactive)	> 100 µM (inactive)	> 100 µM (inactive)	> 100 µM (inactive)	> 100 µM (inactive)	> 100 µM (inactive)	> 100 µM (inactive)	> 100 µM (inactive)	> 100 µM (inactive)	> 100 µM (inactive)	> 100 µM (inactive)	98.6 µM (inactive)	
CC[C@@]1(O)C[C@H](OC2CC(N(C)C)C(OC3CC(O)C(OC4CC(O)C(O)C(C)O4)C(C)O3)C(C)O2)c2c(cc3c(c2O)C(=O)c2c(O)ccc(O)c2C3=O)[C@H]1C(=O)OC (stereo partly drawn)	0.0404 µM (active)	0.254 µM (active)	0.0109 µM (active)	0.0398 µM (active)	0.00507 µM (active)	0.0448 µM (active)	0.0811 µM (active)	0.0263 µM (active)	0.0113 µM (active)	0.0346 µM (active)	0.00875 µM (active)	0.00474 µM (active)	0.0356 µM (active)	0.625 µM (active)	0.0131 µM (active)	0.0369 µM (active)	0.0371 µM (active)	0.1 µM (active)	
CC1(C)CC2(CC(C)(C)N1O)NC(=O)OC2=O	> 100 µM (inactive)	> 100 µM (inactive)	> 100 µM (inactive)	> 100 µM (inactive)	> 100 µM (inactive)	> 100 µM (inactive)	> 100 µM (inactive)	> 100 µM (inactive)	> 100 µM (inactive)	> 100 µM (inactive)	> 100 µM (inactive)	> 100 µM (inactive)	> 100 µM (inactive)	> 100 µM (inactive)	> 100 µM (inactive)	> 100 µM (inactive)	> 100 µM (inactive)	> 100 µM (inactive)	
C=C1CN=C(Nc2ccc(Cl)cc2)S1	> 100 µM (inactive)	> 100 µM (inactive)	96.8 µM (inactive)	> 100 µM (inactive)	> 100 µM (inactive)	> 10 µM (inactive)	> 100 µM (inactive)	> 100 µM (inactive)	> 100 µM (inactive)	> 100 µM (inactive)	> 100 µM (inactive)	> 100 µM (inactive)		> 100 µM (inactive)	> 100 µM (inactive)	> 100 µM (inactive)	> 100 µM (inactive)	> 100 µM (inactive)	> 100 µM (inactive)
Cc1ccc(C(=O)N/N=C(\N=N\c2cccc(C)c2)c2ccc(N(CCC#N)CCC#N)cc2C)cc1	> 100 µM (inactive)	> 100 µM (inactive)	> 100 µM (inactive)	49.3 µM (inactive)		> 100 µM (inactive)	> 100 µM (inactive)	59.6 µM (inactive)	> 100 µM (inactive)	> 100 µM (inactive)	50.5 µM (inactive)	43.3 µM (inactive)	89.1 µM (inactive)	> 100 µM (inactive)	> 100 µM (inactive)	13.1 µM (inactive)	> 100 µM (inactive)	> 100 µM (inactive)	54.7 µM (inactive)
CCOC(C)O[C@H]1C(=O)OCC1(C)C (stereo partly drawn)	> 100 µM (inactive)	> 100 µM (inactive)	80.7 µM (inactive)	> 100 µM (inactive)		> 100 µM (inactive)	> 100 µM (inactive)	> 100 µM (inactive)	> 100 µM (inactive)	> 100 µM (inactive)	> 100 µM (inactive)	> 100 µM (inactive)	> 100 µM (inactive)	> 100 µM (inactive)	> 100 µM (inactive)	> 100 µM (inactive)	> 100 µM (inactive)	> 100 µM (inactive)	> 100 µM (inactive)
